Results as given in BindingDB's records for doi:10.1016/j.bmcl.2004.08.009 (Deltagen Research Laboratories, 2004).

How the values were obtained:
[1] = biological target: C-C chemokine receptor type 2 (Homo sapiens, UniProt P41597); assay: Inhibition of MCP-1 induced chemotaxis in THP-1 cells
[2] = Inhibition of MCP-1 induced chemotaxis in THP-1 cells

Chain of C-C chemokine receptor type 2 (P41597 whole entry): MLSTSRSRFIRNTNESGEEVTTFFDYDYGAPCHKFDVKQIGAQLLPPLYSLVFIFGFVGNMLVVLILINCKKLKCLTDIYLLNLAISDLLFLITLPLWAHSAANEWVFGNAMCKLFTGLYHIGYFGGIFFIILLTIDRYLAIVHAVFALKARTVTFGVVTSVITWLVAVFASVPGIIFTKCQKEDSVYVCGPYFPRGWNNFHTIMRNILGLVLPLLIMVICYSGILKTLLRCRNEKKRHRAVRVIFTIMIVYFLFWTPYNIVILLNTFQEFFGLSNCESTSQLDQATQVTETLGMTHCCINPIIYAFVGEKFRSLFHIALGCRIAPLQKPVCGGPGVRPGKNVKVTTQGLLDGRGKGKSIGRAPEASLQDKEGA

SMILES | EC50 [1] | EC50 [2]
O=C(CNC(=O)c1cccc(C(F)(F)F)c1)NC[C@H]1CCCN1Cc1ccc(Cl)cc1 | 0.81 µM | 
O=C(CNC(=O)c1cccc(C(F)(F)F)c1)N[C@H]1CCN(Cc2ccc(Cl)cc2)C1 |  | 0.36 µM
O=C(CNC(=O)c1cccc(C(F)(F)F)c1)NC1CCCN(Cc2ccc(Cl)cc2)C1 (stereo not given) [N-{[1-(4-Chloro-benzyl)-piperidin-3-ylcarbamoyl]-methyl}-3-trifluoromethyl-benzamide] |  | 0.61 µM

Further compounds by falling EC50 [2], results first:

EC50 [1] | EC50 [2] | SMILES
 | 0.04 µM | O=C(CNC(=O)c1cccc(C(F)(F)F)c1)NCC1CCN(Cc2ccc(Cl)cc2)CC1 [N-({[1-(4-Chloro-benzyl)-piperidin-4-ylmethyl]-carbamoyl}-methyl)-3-trifluoromethyl-benzamide]
 | 0.02 µM | O=C(CNC(=O)c1cccc(C(F)(F)F)c1)N[C@@H]1CCN(Cc2ccc(Cl)cc2)C1 [(R)-N-(2-(1-(4-chlorobenzyl)pyrrolidin-3-ylamino)-2-oxoethyl)-3-(trifluoromethyl)benzamide]
